In article PMC9661478 (Journal of Medicinal Chemistry, 2022):

Experiments:
GP2D cells = test: GP2D proliferation assay; assay type: cell-based; details: KRAS^G12D mutation
p-ERK = test: pERK1/2 immunoassay; details: 40 mg/kg ip daily x3
cleaved caspase 3 = test: Cleaved caspase-3 immunoassay; details: 40 mg/kg ip daily x3
LS513 cells = test: LS513 proliferation assay; assay type: cell-based; details: KRAS^G12D mutation
[1] = Body weight changes in the NCI-H358 efficacy study; details: both dose groups; less pronounced for the low dose group
[2] = target: GDP-KRAS^G12C::SOS1 interaction (Homo sapiens, UniProt P01116, G12C); test: biochemical
Chain of GDP-KRAS^G12C::SOS1 interaction (P01116 1-169 isoform P01116-2 G12C limits assumed): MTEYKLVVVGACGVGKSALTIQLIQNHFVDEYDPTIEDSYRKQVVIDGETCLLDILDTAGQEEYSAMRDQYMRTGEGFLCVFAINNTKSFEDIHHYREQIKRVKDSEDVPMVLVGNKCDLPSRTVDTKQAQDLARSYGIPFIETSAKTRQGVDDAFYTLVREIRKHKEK

Structure (SMILES) | concentration above which antiproliferative effect was observed, GP2D cells (GP2D cells) | reduction of p-ERK levels (p-ERK; 2 h post last dose) | reduction of p-ERK levels (p-ERK; 6 h post last dose) | induction of apoptosis (cleaved caspase 3) detectable in treated samples (cleaved caspase 3; 2 h post-dose on day 3) | induction of apoptosis (cleaved caspase 3) detectable in treated samples (cleaved caspase 3; 6 h post-dose on day 3) | concentration above which antiproliferative effect was observed, LS513 cells (LS513 cells) | body weight change compared to vehicle [1] | IC50 [2] [µM]
C=CC(=O)N1CCN(c2cc(-c3noc([C@@]4(C)CCCc5sc(N)c(C#N)c54)n3)nc(N3CCN(C)C[C@@H]3C)c2)CC1 [BI-0474, (4S)-2-Amino-4-(3-{6-[(2S)-2,4-dimethylpiperazin-1-yl]-4-[4-(prop-2-enoyl)piperazin-1-yl]pyridin-2-yl}-1,2,4-oxadiazol-5-yl)-4-methyl-4,5,6,7-tetrahydro-1-benzothiophene-3-carbonitrile] | above 4 μM | five-fold | six-fold | one out of five | all five | above 4 μM | some body weight loss | –
C=CC(=O)N1CCN(c2cccc(-c3noc([C@@]4(C)CCCc5sc(N)c(C#N)c54)n3)c2)CC1 [Compound 22, (4S)-2-Amino-4-methyl-4-(3-{3-[4-(prop-2-enoyl)piperazin-1-yl]phenyl}-1,2,4-oxadiazol-5-yl)-4,5,6,7-tetrahydro-1-benzothiophene-3-carbonitrile] | – | – | – | – | – | – | – | ~3
